Source: article PMC6105804, “In Vitro and In Vivo Evaluation of APX001A/APX001 and Other Gwt1 Inhibitors against Cryptococcus” (Antimicrobial Agents and Chemotherapy, 2018)
In brackets after ≈: the same amount, converted by molar mass. Read-outs that look alike come from different tables or passages of the source.

Legend:
[1] = system: FLC-susceptible and FLC-nonsusceptible/resistant strains of C. neoformans and C. gattii; assay: Broth microdilution, summary over the 18-strain Cryptococcus collection; type: cell-based, Cryptococcus neoformans and Cryptococcus gattii; details: 18 strains of C. neoformans and C. gattii
Experimental: To establish the antimicrobial activity of the APX001A analogs, broth microdilution susceptibility testing was performed according to Clinical and Laboratory Standards Institute (CLSI) guidelines M27-A3 ([47]) for yeasts and M38-A2 for molds ([48]). APX001A and analogs were first diluted in DMSO to obtain intermediate dilutions. These were further diluted in microtiter plates to obtain a final concentration of 2 to 0.002 μg/ml. One microliter of DMSO was added to the no-drug control wells. The solutions were mixed on a plate shaker for 10 min, and the plates were incubated at 35°C for 40 to 48 h (C. albicans, A. fumigatus) and 72 h (C. neoformans). The minimum concentration that led to a 50% reduction in fungal growth compared to that for the control (determined with the aid of a reading mirror) was determined as the MIC for C. albicans and C. neoformans. […] The use of the MIC and MEC endpoints for APX001A (formerly E1210) against yeasts and molds, respectively, has been described previously ([19][–][21]). For the cryptococcal synergy studies, APX001A and APX2020 MIC values were read at 50% inhibition.

C. albicans 90028 = assay: Broth microdilution susceptibility testing (CLSI M27-A3); type: cell-based, Candida albicans; details: Candida albicans, 90028; read-out: MIC, C. albicans 90028
From the text: (§1) C. neoformans strains H99, DUMC 118.00, and DUMC 158.03 and C. gattii strains R272 and RSA-MW-3515 were obtained from Duke University. C. albicans 90028, A. fumigatus MYA3626, C. neoformans 14116, C. neoformans 76484, and the pathogenic Cryptococcus reference strains panel (ATCC MP-11) were obtained from the American Type Culture Collection (ATCC; Manassas, VA, USA). The ATCC MP-11 panel consists of strains representing eight molecular types and three subtypes of C. neoformans and C. gattii.
(§2) To establish the antimicrobial activity of the APX001A analogs, broth microdilution susceptibility testing was performed according to Clinical and Laboratory Standards Institute (CLSI) guidelines M27-A3 ([47]) for yeasts and M38-A2 for molds ([48]). APX001A and analogs were first diluted in DMSO to obtain intermediate dilutions. These were further diluted in microtiter plates to obtain a final concentration of 2 to 0.002 μg/ml. One microliter of DMSO was added to the no-drug control wells. The solutions were mixed on a plate shaker for 10 min, and the plates were incubated at 35°C for 40 to 48 h (C. albicans, A. fumigatus) and 72 h (C. neoformans). The minimum concentration that led to a 50% reduction in fungal growth compared to that for the control (determined with the aid of a reading mirror) was determined as the MIC for C. albicans and C. neoformans. The minimum concentration that led to the shortening of hyphae compared to the hyphal growth in DMSO control wells was determined as the minimum effective concentration (MEC) for A. fumigatus (as read for the echinocandins). The use of the MIC and MEC endpoints for APX001A (formerly E1210) against yeasts and molds, respectively, has been described previously ([19][–][21]). For the cryptococcal synergy studies, APX001A and APX2020 MIC values were read at 50% inhibition.

A. fumigatus MYA3626 = assay: Broth microdilution susceptibility testing for molds (CLSI M38-A2); type: cell-based; details: Aspergillus fumigatus, MYA3626; read-out: MIC or MEC for A. fumigatus MYA3626
From the text: as §1, §2

[2] = Single-dose mouse pharmacokinetics of prodrugs with or without ABT; type: in vivo; details: for AUC: male, CD-1, mouse, plasma, 26 mg/kg
Experimental: The area under the curve (AUC) was calculated from time zero to the time of the last measurable concentration. The active metabolite concentrations in plasma (APX001A, APX2039, APX2020, and APX2041) were determined by liquid chromatography-tandem mass spectrometry. PK parameters were determined using Phoenix WinNonlin (v7.0) software and a noncompartmental model.

C. neoformans H99 = assay: Microtiter checkerboard synergy with FLC; type: cell-based, Cryptococcus neoformans; details: in combination with FLC, MIC read at 50% inhibition, synergy FICI < 0.5
Experimental: An important consideration for developing a new treatment for CM is the potential for inclusion in combination therapy. We evaluated the synergy of APX001A and APX2020 in combination with FLC using standard microtiter dilution techniques ([33]). […] Importantly, no antagonism was observed.
as §2, with “The use of the MIC and MEC endpoints for APX001A (formerly E1210) against yeasts and molds, respectively, has been described previously ([19][–][21]). For the cryptococcal synergy studies, APX001A and APX2020 MIC values were read at 50% inhibition.” left out

C. gattii = assay: Broth microdilution susceptibility testing (CLSI M27-A3); type: cell-based; details: Cryptococcus gattii
From the text: as §1, §2

C. neoformans [3] = assay: as above; type: cell-based, Cryptococcus neoformans; details: for MIC: Cryptococcus neoformans
From the text: as §1, §2

C. neoformans [4] = system: C. neoformans; set-up: method as in PMID 23740727; details: 46 strains of C. neoformans, global study; cited from earlier work

Which MIC90 [1] does the source give for `Nc1ncccc1-c1cc(Cc2ccc(OCc3ccccc3)cc2)no1` [APX2020] here?
Its MIC90 is 0.25 µg/mL.

And the MIC ([1]; read-out: Geometric mean MIC)?
The MIC was 0.085 µg/mL.

And the MIC (C. albicans 90028)?
The MIC was 0.016 µg/mL.

What about the MIC (A. fumigatus MYA3626) of the same compound?
The MIC was 0.031 µg/mL.

And the “Ratio of AUC with ABT/AUC without ABT, i.p. dosing” value ([2]; 26 mg/kg prodrug)?
Its value is 8.3.

What about the “Ratio of AUC with ABT/AUC without ABT, p.o. dosing” value ([2]; 26 mg/kg prodrug) of the same compound?
Its value is 9.3.

What about the AUC ([2]; intraperitoneal, AUC of analyte after 26 mg/kg prodrug, 100 mg/kg ABT orally 2 h before, read-out: Avg AUC resulting from 26-mg/kg dose, i.p. dosing + ABT) of the same compound?
The AUC was 35600 ± 28200 ng·h/mL.

And the AUC ([2]; ip, AUC of analyte after 26 mg/kg of the corresponding prodrug, male CD-1 mice, no ABT, read-out: Avg AUC resulting from 26-mg/kg dose, i.p. dosing)?
Its AUC is 4310 ± 960 ng·h/mL.

What about the AUC ([2]; po, AUC of analyte after 26 mg/kg prodrug, 100 mg/kg ABT orally 2 h before, read-out: Avg AUC resulting from 26-mg/kg dose, p.o. dosing + ABT) of the same compound?
The AUC was 41900 ± 6410 ng·h/mL.

What about the AUC ([2]; po, AUC of analyte in plasma after 26 mg/kg of the corresponding prodrug, male CD-1 mice, no ABT, read-out: Avg AUC resulting from 26-mg/kg dose, p.o. dosing) of the same compound?
The AUC was 4490 ± 2320 ng·h/mL.

And the “fractional inhibitory concentration index (FICI)” value (C. neoformans H99)?
The value was 0.37.

And the MIC (C. gattii; C. gattii isolate MYA-4093, read-out: MIC)?
The MIC was 0.125 µg/mL.

What about the MIC (C. gattii; C. gattii isolate MYA-4094, read-out: MIC) of the same compound?
The MIC was 0.25 µg/mL.

What about the MIC (C. gattii; C. gattii isolate MYA-4560 (first listing, r17), read-out: MIC) of the same compound?
Its MIC is 0.063 µg/mL.

And the MIC (C. gattii; C. gattii isolate MYA-4560 (second listing, r21), read-out: MIC)?
The MIC was 0.063 µg/mL.

And the MIC (C. gattii; C. gattii isolate MYA-4561, read-out: MIC)?
The MIC was 0.125 µg/mL.

And the MIC (C. gattii; C. gattii isolate MYA-4562, read-out: MIC)?
Its MIC is 0.125 µg/mL.

What about the MIC (C. gattii; C. gattii isolate MYA-4563, read-out: MIC) of the same compound?
The MIC was 0.125 µg/mL.

And the MIC (C. gattii; C. gattii isolate MYA-4877, read-out: MIC)?
The MIC was 0.063 µg/mL.

What about the MIC (C. gattii; C. gattii isolate RSA-MW-3615 (FLC resistant), read-out: MIC) of the same compound?
The MIC was 0.031 µg/mL.

And the MIC (C. gattii; Table 1, 50% growth inhibition for FLC, caspofungin and APX compounds, 100% for AMB, read-out: MIC, C. gattii WM276)?
Its MIC is 0.031 µg/mL.

What about the MIC (C. neoformans [3]; 72 h, Table 1, 50% growth inhibition for FLC, caspofungin and APX compounds, 100% for AMB, 72 h, read-out: MIC, C. neoformans H99) of the same compound?
The MIC was 0.031 µg/mL.

And the MIC (C. neoformans [3]; C. neoformans isolate 14116, read-out: MIC)?
Its MIC is 0.031 µg/mL.

What about the MIC (C. neoformans [3]; C. neoformans isolate 76484, read-out: MIC) of the same compound?
The MIC was 0.063 µg/mL.

What about the MIC (C. neoformans [3]; C. neoformans isolate DUMC 118.00 (FLC resistant), read-out: MIC) of the same compound?
Its MIC is 0.063 µg/mL.

And the MIC (C. neoformans [3]; C. neoformans isolate DUMC 158.03 (FLC resistant), read-out: MIC)?
Its MIC is 0.25 µg/mL.

And the MIC (C. neoformans [3]; C. neoformans isolate MYA-4564, read-out: MIC)?
The MIC was 0.063 µg/mL.

What about the MIC (C. neoformans [3]; C. neoformans isolate MYA-4565, read-out: MIC) of the same compound?
Its MIC is 0.25 µg/mL.

What about the MIC (C. neoformans [3]; C. neoformans isolate MYA-4566, read-out: MIC) of the same compound?
Its MIC is 0.125 µg/mL.

And the MIC (C. neoformans [3]; C. neoformans isolate MYA-4567, read-out: MIC)?
The MIC was 0.063 µg/mL.

What about the MIC (C. neoformans [3]; Table 2, C. neoformans isolate H99, read-out: MIC) of the same compound?
Its MIC is 0.031 µg/mL.

What about the “fold improved anti-C. neoformans H99 activity vs APX001A” value (C. neoformans [3]; from MIC values of Table 1) of the same compound?
The value was 8 fold.

Which MIC90 (C. neoformans [4]) does the source give for `C[C@@H](c1nc(-c2ccc(C#N)cc2)cs1)[C@](O)(Cn1cncn1)c1cc(F)ccc1F` [isavuconazole] here?
The MIC90 was 0.06 µg/mL (≈ 0.137 µM).
